Laboratory results published in PubChem BioAssay (NCI).
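Test compounds were applied to cells in 96-well plates for 48 hours at 5 doses. At the GI50, growth is halved. The concentration for full growth arrest is given as TGI.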

How the values were obtained:
Assay in all cases: DTP human tumour cell line panel, 48 h
[1] = tested on: HOP-62 NSCLC
[2] = tested on: CCRF-CEM leukemia
[3] = tested on: SK-MEL-28 melanoma
[4] = tested on: UACC-257 melanoma
[5] = tested on: SF-539 CNS
[6] = tested on: EKVX NSCLC
[7] = tested on: K-562 leukemia
[8] = tested on: HCT-15 colon
[9] = tested on: MOLT-4 leukemia
[10] = tested on: UACC-62 melanoma

| Structure (SMILES) | GI50 [1] [µM] | TGI [1] [µM] | GI50 [2] [µM] | TGI [2] [µM] | GI50 [3] [µM] | TGI [3] [µM] | GI50 [4] [µM] | TGI [4] [µM] | GI50 [5] [µM] | TGI [5] [µM] | GI50 [6] [µM] | TGI [6] [µM] | GI50 [7] [µM] | TGI [7] [µM] | GI50 [8] [µM] | TGI [8] [µM] | GI50 [9] [µM] | TGI [9] [µM] | GI50 [10] [µM] | TGI [10] [µM] |
| --- | --- | --- | --- | --- | --- | --- | --- | --- | --- | --- | --- | --- | --- | --- | --- | --- | --- | --- | --- | --- |
| CCCCCCCC/C=C/CCCCCCCC1=NC(C)(C)CN1CCO | 1.83 | 3.29 | 2.22 | 6.75 | 1.89 | 3.39 | 2 | 3.81 | 1.68 | 3.07 | 3.55 | 12.8 | 1.3 | 3.02 | 1.58 | 3.16 | 1.44 | 4.9 | 1.72 | 3.42 |
| C#CCN(c1ccc(C(=O)N[C@@H](CCC(=O)N[C@H](CCC(=O)O)C(=O)O)C(=O)O)cc1)C1CCc2cc3nc(CO)[nH]c(=O)c3cc21 (stereo partly specified) | > 31.8 | > 100 | > 36.3 | > 100 | > 100 | > 100 | > 100 | > 100 | 4.38 | > 100 | > 100 | > 100 | > 100 | > 100 | > 29.9 | > 100 | 31.6 | > 100 | 7.33 | > 64.1 |
| Cc1cc(Nc2nc(N[C@@H](C)c3ncc(F)cn3)ncc2Cl)n[nH]1 | 20 | > 100 | 55.7 | > 100 | 38.1 | > 100 | 33.2 | > 100 | 14.9 | 58 | 56.8 | > 100 | 32.2 | > 100 | 24.9 | > 100 | 60.7 | > 100 | 11.7 | 88 |
| C=CCC(N[C@@H](CO)c1ccccc1)c1cn(C(=O)OCC)c2ccccc12 (stereo partly specified) | 20.4 | 45.8 | 19.2 | 56.7 | 34.1 | > 100 | 22.9 | 66 | 20.6 | 37.3 | 35.3 | > 100 | 22.6 | > 100 | 18.9 | 40.8 | 15.5 | > 100 | 30.4 | 98.4 |
| Cn1cc2ccccc2c1-c1nc(F)nc(Oc2ccc3c(c2)CC[C@@H]2C3CC[C@@]3(C)C2C[C@H](O)[C@@H]3O)n1 (stereo partly specified) |  | 18.7 |  | 6.43 |  | 38.9 |  | 81.6 |  | 28.9 |  | 40.7 |  | 42.8 |  | 24.6 |  | 26.1 |  | 40.6 |
| O=C1O/C(=C/c2ccccc2)C(c2ccccc2)=C1O |  | 94.3 |  | > 100 |  | > 100 |  | > 100 |  | > 100 |  | > 100 |  | > 100 |  | > 100 |  | > 100 |  | 33.8 |
| Nc1nc(/C=C\c2ccccc2)nc(N2CCN(c3ccccc3)CC2)n1 | 23.9 | 86.3 | 37.3 | > 100 | 30.9 | 79.6 | 29.1 | 68.5 | 41.1 | > 100 | 59.1 | > 100 | 20.5 | 65.1 | 16.3 | 78 | 36.8 | > 100 | 26 | 91.6 |
| O=C(/C=C\c1cccc2ccccc12)c1ccc(Cl)cc1Cl |  | > 100 |  | 42.1 |  | 38.4 |  | 75.3 |  | 53.2 |  | > 100 |  | 38.6 |  | 26.6 |  | 63.9 |  | 34 |
| N#CC(C(=O)/C(=N\NC(N)=O)C(C#N)c1ccccc1)c1ccccc1 (stereo unspecified) |  | > 100 |  | > 100 |  | > 100 |  | > 100 |  | > 100 |  | > 100 |  | > 100 |  | > 100 |  | > 100 |  | > 100 |
| COC1OC2COC(C)(C)OC2C(OC(C)=O)C1NC(=O)N(CCCl)N=O (stereo unspecified) |  | > 100 |  | > 100 |  | > 100 |  | > 100 |  | 93.1 |  | > 100 |  | > 100 |  | > 100 |  | > 100 |  | > 100 |
| C/C=C1\CN2CCc3c([nH]c4ccccc34)C2CC1CCO (stereo unspecified) |  | > 100 |  | > 100 |  | > 100 |  | > 100 |  | > 100 |  | > 100 |  | > 100 |  | > 100 |  | > 100 |  |  |
| COC(=O)[C@@]12CC(C(C)C)[C@H]3CC(C(=O)C=C1OC)[C@H]32 (stereo partly specified) |  | > 100 |  | > 100 |  | > 100 |  | > 100 |  | > 100 |  | > 100 |  | > 100 |  | > 100 |  | > 100 |  | > 100 |
| O=C(Nc1ccc(Cl)c(Cl)c1)C(=O)C(C(=O)c1ccccc1-c1ccccc1)C1OC(=O)c2ccccc21 (stereo unspecified) |  | 27.4 |  | 84.9 |  | > 100 |  | > 100 |  | 27.9 |  | 43.4 |  | > 100 |  |  |  | > 100 |  | 41.2 |
| C/C(=C(\c1ccc(OCCN2CCCCCC2)cc1)c1ccc(OC(=O)c2ccccc2)cc1)c1ccc(Cl)cc1 | 4.35 | 8.95 | 4.2 | 16.4 | 4.33 | 9.02 | 5.34 | 10.4 | 3.79 | 8.31 | 4.97 | 13.9 | 1.31 | 33.3 | 1.4 | 5.99 | 2.25 | 10.9 | 5.1 | 11.1 |
| CCOc1ccccc1N=Nc1c(-c2ccccc2)nn(C(=O)CC(=O)Nc2cccc(C)c2)c1-c1ccccc1 |  | > 100 |  | > 100 |  | > 100 |  | > 100 |  | > 100 |  | > 100 |  | > 100 |  |  |  | > 100 |  | > 100 |
| CN(/N=C\c1ccnc2ccccc12)c1ccc([N+](=O)[O-])cc1 |  | > 100 |  | 82.5 |  | > 100 |  | > 100 |  | > 100 |  | > 100 |  | > 100 |  | > 100 |  | > 100 |  | > 100 |
| CNS(=O)(=O)NNS(=O)(=O)c1ccc(OC)cc1 |  | > 100 |  | > 100 |  |  |  | > 100 |  | > 100 |  | > 100 |  | > 100 |  | > 100 |  | > 100 |  | > 100 |
